# Data: US9995734B2, “Human T cell line assay for evaluating the immunologic identity of glatiramer acetate preparations” (Mylan Inc., priority 2013, dated 2018)
# System: Donor 3 GMA T-Cell Lines
# Test: ATP proliferation assay (CellTiter Glo), Donor 3 GMA T-cell lines, incl. reactivity to non-canonical GA peptides
# Type: cell-based, human
# Conditions: for Mean, ATP proliferation assay: 10 μg/mL
sequence,measurement,setting,value
FFKNIVTPRTPPPSQGK [MBP],"Mean, ATP proliferation assay","T-cell line 165-B2G, Day 40",3320
same,"Proliferation (luminescent ATP assay), Mean","T-cell line 165-B5G, 10 μg/mL antigen, Day 55 of culturing, No Antigen Value 846",871 RLU
same,"Mean, ATP proliferation assay","T-cell line 165-B5G, Day 40",3398
same,"Mean, ATP proliferation assay","T-cell line 165-C4G, Day 40",3482
same,"Proliferation (luminescent ATP assay), Mean","T-cell line 165-C5G, 10 μg/mL antigen, autologous B-LCL",469 RLU
same,"Mean, ATP proliferation assay","T-cell line 165-C5G, Day 40",3401
same,"Mean, ATP proliferation assay","T-cell line 165-C8G, tested with the Donor 3 COP lines of Table 25",5279 RLU
same,"Mean, ATP proliferation assay","T-cell line 165-D8G, Day 40",6909
same,"Proliferation (luminescent ATP assay), Mean","T-cell line 165-E7G, 10 μg/mL antigen, autologous B-LCL, Day 55",2116 RLU
same,"Mean, ATP proliferation assay","T-cell line 165-E7G, Day 40",2989
same,"Proliferation (luminescent ATP assay), Mean","T-cell line 165-E9G, 1 μg/mL antigen, Day 50 of culturing, No Antigen Value 1742",1527 RLU
same,"Proliferation (luminescent ATP assay), Mean","T-cell line 165-E9G, 3 μg/mL antigen, Day 50 of culturing, No Antigen Value 1742",1428 RLU
same,"Proliferation (luminescent ATP assay), Mean","T-cell line 165-E9G, 10 μg/mL antigen, autologous B-LCL",163 RLU
same,"Mean, ATP proliferation assay","T-cell line 165-E9G, Day 40",2892
same,"Proliferation (luminescent ATP assay), Mean","T-cell line 165-E9G, 30 μg/mL antigen, Day 50 of culturing, No Antigen Value 1742",1208 RLU
same,"Proliferation (luminescent ATP assay), Mean","T-cell line 165-E9G, 10 μpg/mL antigen, Day 50 of culturing, No Antigen Value 1742",1247 RLU
same,"Mean, ATP proliferation assay","T-cell line 165-F2G, Day 40",2345
same,"Proliferation (luminescent ATP assay), Mean","T-cell line 165-F5G, 10 μg/mL antigen, autologous B-LCL",138 RLU
same,"Mean, ATP proliferation assay","T-cell line 165-F5G, Day 40",2904
same,"Mean, ATP proliferation assay","T-cell line 165-F8G, Day 40",3366
same,"Proliferation (luminescent ATP assay), Mean","T-cell line 165-F10G, 10 μg/mL antigen, autologous B-LCL",831 RLU
same,"Mean, ATP proliferation assay","T-cell line 165-F10G, Day 40",3585
same,"Proliferation (luminescent ATP assay), Mean","T-cell line 165-H11G, 10 μg/mL antigen, autologous B-LCL",323 RLU
same,"Mean, ATP proliferation assay","T-cell line 165-H11G, Day 40",2925
